We go through four compounds from patent US11129782B2, “Derivatives of PPD useful for coloring hair and skin” (National University of Singapore, priority 2017, dated 2021).

Structures are written as SMILES.

The test system of data set [1] is IL-8. Kind of data set: IL-8 ELISA on THP-1 cell supernatants. The following applies: preliminary ELISA, CV75. The format is cell-based, human. As to the method: For cytokine profiling in THP-1, supernatants from wells were collected and then used for cytokine analysis by a Chemokine immunosorbent assay Bio-legend ELISA Max kit. The levels of available IL-8 protein from THP-1 cell supernatants was estimated using this kit which are regulated upon activation of THP-1 model. Surface receptor expression of human CD-86, CD-54, MHC-I and IL-T3 were analyzed by flow cytometry using standard BD FACS analyzer with PE and FITC fluorescent labeled antibodies from Biolegend and e Bioscience.
In order to understand the effect of modified PPD hairdyes on THP-1 immune sensitization, a certain degree of Cytotoxicity at CV75% viable where 25% cell death is required before evaluation of supernatants in THP-1 models for expression of cytokine IL-8 and receptor expression of CD86, CD54, MHC-I and IL-T3 surface receptors upon treatment with standard PPD and modified hair dye compounds. Most allergens show a specific dose-dependent alteration of CD86 and/or CD54 expression or secretion of cytokine profiles. But depending on chemical, the alteration pattern may vary.
(In general: An ELISA detects its analyte on a solid surface through an enzyme-linked reagent.)

The subject of data set [2] is HaCaT cells. The data set can be described thus: In vitro cell cytotoxicity (MTT) assay on HaCaT cells. The format is cell-based, human. The following applies: 72 h incubation, MTT. An excerpt:
HaCaT (human, adult, low calcium, high temperature, human adult skin keratinocytes) cells were obtained from the IMB (Institute of Medical Biology) Skin Cell Bank. Fetal bovine serum (FBS), Dulbecco's minimum essential medium (DMEM) and trypsin EDTA solution were purchased from GE healthcare life sciences, Utah. Penicillin/streptomycin, dimethyl sulfoxide (DMSO), and phosphate buffered saline (PBS) were from Fisher Scientific (Singapore). Para-phenylenediamine (PPD) was purchased from Sigma Aldrich (Singapore). PPD analogues such as Dimer, trimer, ethyl hexyl para-phenylenediamine (EHPPD), hexyl para-phenylenediamine (HPPD), Bandrowski base (BB) were synthesized in house.
Cell viability was essentially determined using the MTT assay as described in the literature. The HaCaT cells were grown in DMEM with 10% FBS and 1% penicillin/streptomycin. The cells in T-75 cm^2 culture flasks were incubated with 5% CO2 at 37° C. in a humidified incubator. The HaCaT cells were grown to expected confluency and then they were harvested by trypsinizing the cell with 0.25% trypsin/EDTA and incubated at 37° C. for 5 min to obtain the complete cell detachment. After the incubation, cell pellets were resuspended, and washed twice with 1×PBS. The cell suspension in 1×PBS was counted and adjusted to 1×10^5/mL. A HaCaT keratinocyte suspension (100 μL in 1×PBS) with a cell concentration of 1×10^5 cells/mL) and a test solution (100 μL in milli-Q water) were combined in each well of two 96-well plates. Test solutions with a desired concentration were prepared by serial dilutions of the stock solutions with 1×PBS.
For the cytotoxicity experiment, cells were seeded at a density of 5×10^3 in 200 ul of medium into each well of 96-well plates. Cells were seeded as three sets of four replicates for each concentration. After 24 h of incubation, the cells were washed with PBS and cultured for 72 h with 200 ul of 10% FBS containing DMEM medium, together with the different concentrations of the test compounds ranging from 500 μM to 1.9 μM for PPD and analogues 1-5 and standard in a serial dilution. Then the medium was removed and 100 μl of MTT [3-(4,5-dimethylthiazol-2yl)-2,5-diphenyl-2H-tetrazolium bromide](1 mg/ml) (Alfa Aesar, Singapore) in PBS was added. At the end of 4 h incubation, the plates were removed from the incubator and plates were shaken for 5 min. The absorbance at 570 nm was determined using Bio-Tek plate reader. The cell viability rates were calculated from absorbance readings and represented as percentages of control value (untreated cells).

Data set [3] can be described thus: Skin permeation in vertical Franz diffusion cells. Type of data set: in vitro ADME, porcine. Particulars: 8 h; for % Parent compound Penetrated (mean) / % converted to metabolite (mean) / recovery at 8 h, 1 % w/v: 1% W/V applied; for recovery at 8 h, 1 % w/v: pig, read-out: % Parent compound Recovery (mean); for Penetration profile PPD vs derivatives (times less than PPD): ratio of PPD penetration to that of the compound. The procedure: Porcine ears were generously provided by the NUS Department of Surgery. The ears were frozen at −80° C. until use (up to 3 months) and thawed at room temperature on the day preceding the experiment. Prior to the experiment, the skin was separated from the cartilage and dermatomed to a thickness of ˜1.0 mm using an Acculan™ 3Ti dermatome (Aesculap, Inc., B. Braun, USA).
The PPD and derivatives were dissolved in deionized water at 1% w/v. The PPD and PPD derivatives 1-5 solutions were purged with argon gas to minimize oxidation of the donor solution.
Skin penetration studies were carried out using vertical Franz diffusion cells (PermeGear, USA) immersed in a 37° C. water bath. The donor and receptor volumes were 900 µL and 5 mL, respectively; the mean surface area of penetration was 0.64 cm^2. Upon insertion of the skin pieces into the Franz cells, the skin was equilibrated for 45 min with PBS in the receptor compartment. After equilibration, the skin's trans-epidermal water loss (TEWL) was measured using an Aquaflux AF300 (Biox, UK) to assess the integrity of the skin's stratum corneum barrier. The donor solution, consisting of PPD or derivative 1-5 (n=3 Franz cells each), was then added to the donor compartment and the penetration experiments were conducted for 8 h. The receptor solutions were continuously stirred with magnetic stirrers. At fixed time points, aliquots of 200 μL were taken from the receptor solution of each cell and the receptor solution topped up with 200 μL of fresh PBS. At the end of the experiment, the donor and receptor solutions were removed and the cells dismantled. For the purpose of mass balance on the PPD, PPD derivatives 1-5 the skin pieces and swabs of their outer surfaces were collected and stored in acetonitrile for PPD or derivative 1-5 extraction. The donor solution as well as PBS used to thoroughly wash each part of the Franz cells were also collected.
PPD, PPD derivatives 1-5 and metabolite concentrations in all permeation and mass balance samples were measured by LCMS. PPD steady state fluxes and permeability coefficients were calculated by fitting the solution to Fick's second law of diffusion at the steady state to the linear part of each experimental cumulative amount curve.
The validated method LCMS was applied to quantify PPD, PPD derivative 1-5 and metabolites from skin permeation study samples. FIGS. 3 and 4 show LCMS spectra for the identification of PPD and PPD derivatives 1 and 2 and metabolites from skin permeation study experiment.

Data set [4] has as its system cysteine peptide (Ac-RFAACAA-COOH). Kind of data set: Direct Peptide Reactivity Assay, cysteine peptide. Particulars: for % of Cysteine depletion, Avg / % of Cysteine depletion, Rep 2 / % of Cysteine depletion, Rep 3 / Reactivity Class: 1:10; for % of Cysteine depletion, Rep 1: peptide 0.02 mM : test chemical 0.2 mM (1:10); for Reactivity Class: cysteine. The procedure: For cysteine DPRA, an additional step was performed.
(§1) The mass spectrometric analysis was performed by use of a AB SCIEX QTRAP 5500 tandem mass spectrometry (MS/MS) system (AB SCIEX, Framingham, Mass., USA) operating in triple quadrupole positive mode (ESI+) equipped with an AB Sciex Turbo Ion Spray interface. Acquisition and analysis of data were performed with Analyst software ver. 1.6.2 (Applied Biosystems).

The test system of data set [5] is cysteine and lysine peptides. The data set can be described thus: Direct Peptide Reactivity Assay, mean of cysteine and lysine depletion (FIG. 12). Particulars: cysteine 1:10 / lysine 1:50 model.
Description: Direct reactivity of test chemical to lysine-based synthetic peptide was determined in reactions containing 100 mM ammonium acetate buffer (pH 10.2). The final concentration of lysine peptide was 20 μM in a final reaction volume of 0.3 ml. Direct reactivity of test chemicals to cysteine-based synthetic peptide was determined in 100 mM Sodium Phosphate buffer of pH 7.5.
For the DPRA, incubation mixtures were prepared using each peptide to test compound ratios of both 1:10 for cysteine peptide and 1:50 for lysine peptide, according to Table 19. […] Sample reactions were initiated by adding 3 μl of a test chemical stock solution for cysteine and 15 μl stock solution for lysine peptide. These mixtures were then placed in a temperature-controlled shaking incubator at 25° C.
At each time point (20 mins/24 hours), the incubation mixtures were quenched with 75 μL of 95% ACN/H2O, and mildly vortexed (600 rpm, 3 seconds). For Lysine DPRA experiment, 10 μl of aliquot was diluted with 2% ACN/H2O, vortexed and stored at −80° C. until analysis by LC-MS/MS. For cysteine DPRA, an additional step was performed. 10 μl of cysteine reaction mixture, at time points 20 min and 24 h were diluted in 180 μl of 2% ACN/H2O. To which, a 10 μl aliquot of a 16 mM dithiothreitol solution (prepared in water) was then added, and samples were heated in a 45° C. oven for 30 min, then allowed to cool to room temperature prior to analysis. The peptide depletion (PD) percentage was obtained using this equation.
The test system of data set [6] is lysine peptide (Ac-RFAAKAA-COOH). The data set can be described thus: Direct Peptide Reactivity Assay, lysine peptide. Particulars: for % of Lysine depletion, Avg / % of Lysine depletion, Rep 2 / % of Lysine depletion, Rep 3 / Reactivity Class: 1:50; for % of Lysine depletion, Rep 1: peptide 0.02 mM : test chemical 1 mM (1:50); for Reactivity Class: lysine. As to the method:
as §1

For the compound `O=[N+]([O-])c1ccc(Cl)c([N+](=O)[O-])c1` [DNCB, reference compound], the IL-8 expression result in data set [1] is listed as “increased expression”.

The IC50 is the concentration needed to halve the response being measured. A lower IC50 goes with higher potency. `CCCCC(CC)COc1cc(N)ccc1N` (stereo not shown) [PPD derivative 3, 2-((2-ethylhexyl)oxy)benzene-1,4-diamine] had an IC50 in data set [2] (Homo sapiens, HaCaT, 72 h) of 31 µM. In data set [3], the “% Parent compound Penetrated (mean)” value was 0.00045%; the “% converted to metabolite (mean)” value came out at 0.0123%; the recovery at 8 h, 1 % w/v was 94.5%. For the same compound, the “Penetration profile PPD vs derivatives (times less than PPD)” value in data set [3] (listed as PPD 3) is on record as 360. Moreover, in data set [4] (20 min), the “% of Cysteine depletion, Avg” value was 31.9%; the “% of Cysteine depletion, Rep 2” value is reported as 32%; the “% of Cysteine depletion, Rep 3” value was determined as 31.4%; the “% of Cysteine depletion, Rep 1” value worked out at 32.4%. In data set [4] (24 h), the “% of Cysteine depletion, Avg” value was determined as 32.7%; the “% of Cysteine depletion, Rep 2” value worked out at 31.7%; the “% of Cysteine depletion, Rep 3” value stood at 31.8%; the “% of Cysteine depletion, Rep 1” value is on record as 34.8%. The “Reactivity Class” value in data set [4] (24 h) is “Moderate”. In data set [4] (20 min, listed as Derivative 3), the “Reactivity Class” value is given as “Moderate”. For the same compound, in data set [4] (20 min, listed as derivative 3), the “Reactivity Class” value is on record as “moderate”. For the same compound, the “Sensitizing potential predicted from mean peptide depletion” value (from here on “Sensitizing potential predicted”) in data set [5] was “moderate sensitizer”. In addition, in data set [6] (20 min), the “% of Lysine depletion, Avg” value worked out at 6.2%; the “% of Lysine depletion, Rep 2” value is reported as 5.63%; the “% of Lysine depletion, Rep 3” value worked out at 7.89%; the “% of Lysine depletion, Rep 1” value stood at 5.07%. The “Reactivity Class” value in data set [6] (20 min) was “No or Minimal”. Besides, in data set [6] (24 h), the “% of Lysine depletion, Avg” value came to 15.48%; the “% of Lysine depletion, Rep 2” value amounted to 19.7%; the “% of Lysine depletion, Rep 3” value was 13.8%; the “% of Lysine depletion, Rep 1” value is given as 12.8%. In addition, the “Reactivity Class” value in data set [6] (24 h) is recorded as “Low”.

`CCCCCCOc1cc(N)ccc1N` [PPD derivative 4, 2-hexyloxy-1,4-diaminobenzene] registered an IC50 in data set [2] of 34.8 µM. In addition, in data set [2] (Homo sapiens, HaCaT, 72 h), half-maximal inhibition (IC50) required 34.8 µM. Further, in data set [3], the “% Parent compound Penetrated (mean)” value came to 0.000322%; the “% converted to metabolite (mean)” value turned out to be 0.0121%; the recovery at 8 h, 1 % w/v came out at 94.3%. In data set [3] (listed as PPD 4), the “Penetration profile PPD vs derivatives (times less than PPD)” value worked out at 503.1. Also, in data set [4] (20 min), the “% of Cysteine depletion, Avg” value was 32.8%; the “% of Cysteine depletion, Rep 2” value is given as 31.8%; the “% of Cysteine depletion, Rep 3” value worked out at 33.8%; the “% of Cysteine depletion, Rep 1” value amounted to 30.8%. In data set [4] (24 h), the “% of Cysteine depletion, Avg” value is listed as 40.8%; the “% of Cysteine depletion, Rep 2” value turned out to be 41%; the “% of Cysteine depletion, Rep 3” value is reported as 41.5%; the “% of Cysteine depletion, Rep 1” value was 40%. Further, the “Reactivity Class” value in data set [4] (24 h) is “Moderate”. For the same compound, the “Reactivity Class” value in data set [4] (20 min, listed as Derivative 4) was “Moderate”. Moreover, the “Reactivity Class” value in data set [4] (20 min, listed as derivative 4) is recorded as “moderate”. Further, the “Sensitizing potential predicted” value in data set [5] was “moderate sensitizer”. In data set [6] (20 min), the “% of Lysine depletion, Avg” value is given as 1.1%; the “% of Lysine depletion, Rep 2” value amounted to 0.845%; the “% of Lysine depletion, Rep 3” value was 1.41%; the “% of Lysine depletion, Rep 1” value turned out to be 1.13%. In addition, in data set [6] (20 min), the “Reactivity Class” value was “No or Minimal”. Further, in data set [6] (24 h), the “% of Lysine depletion, Avg” value worked out at 13.4%; the “% of Lysine depletion, Rep 2” value came to 15%; the “% of Lysine depletion, Rep 3” value was 13.9%; the “% of Lysine depletion, Rep 1” value stood at 11.3%. Besides, the “Reactivity Class” value in data set [6] (24 h) is reported as “Low”.

In the case of `CCCCCCNc1ccc(N)cc1OCCCCCC` [PPD derivative 16, (N^1-hexyl)(2-hexyloxy)-1,4-diaminobenzene], half-maximal inhibition in data set [2] (IC50) was put at 140 µM. Also, the “Sensitizing potential predicted” value in data set [5] is on record as “moderate sensitizer”.
